Measured values taken from PMC3560421 (European journal of medicinal chemistry, 2012).
Where two headings read alike, the source gives them in different places.

What was measured:
poly(dA-dT)n = assay: DNA thermal melting; type: binding; settings: thermal melting with poly(dA-dT); compared with DB766
[1] = tested on: intracellular Leishmania amazonensis; assay: Efficacy against intracellular Leishmania amazonensis parasites; type: cell-based; settings: read-out: IC50 L. a., intracellular L. amazonensis
[2] = Preliminary in vivo toxicity evaluation in uninfected animals; parameters: species or system mice; settings: for Adverse reaction after dosing: mouse, in vivo, ip, 30 mg/kg
Leishmania = settings: read-out: IC50 value (antileishmanial, in vitro); cited from earlier work
[3] = tested on: intracellular Leishmania amazonensis; settings: read-out: IC50 L. a.; cited from earlier work
[4] = tested on: intracellular Leishmania donovani; settings: read-out: IC50 L. d.; cited from earlier work

| SMILES | DNA binding (in words) (poly(dA-dT)n) | Toxicity to mice (in words) [2] | Adverse reaction after dosing [2] | also measured |
| --- | --- | --- | --- | --- |
| Cl.Cl.N=C(Nc1ccc(NC(=N)c2ccccn2)cc1)c1ccccn1 [3a, N,N'-(1,4-phenylene)dipicolinimidamide hydrochloride] | essentially do not bind to DNA |  |  |  |
| Cl.Cl.N=C(Nc1ccc(NC(=N)c2ncccn2)cc1)c1ncccn1 [3b, N,N'-(1,4-phenylene)dipyrimidine-2-carboximidamide hydrochloride] | essentially do not bind to DNA |  |  |  |
| Cl.Cl.N=C(Nc1ccc(-c2ccc(NC(=N)c3ccccn3)cc2)cc1)c1ccccn1 [9a, N,N'-([1,1'-biphenyl]-4,4'-diyl)dipicolinimidamide hydrochloride] | binds with the same affinity as DB766 | quite toxic to mice | severe tremors | IC50 [1]: < 1000 nM |
| Cl.Cl.N=C(Nc1ccc(Oc2ccc(NC(=N)c3ccccn3)cc2)cc1)c1ccccn1 [9c, N,N'-(oxybis(4,1-phenylene))dipicolinimidamide hydrochloride] |  | quite toxic to mice | severe tremors | IC50 [1]: < 1000 nM |
| CC(C)Oc1cc(NC(=N)c2ccccn2)ccc1-c1ccc(-c2ccc(NC(=N)c3ccccn3)cc2OC(C)C)o1 [DB766] |  |  |  | IC50 (Leishmania): < 100 nM; IC50 [3]: 87 nM; IC50 [4]: 36 nM |
| Cl.Cl.N=C(Nc1ccccn1)c1ccc(C(=N)Nc2ccccn2)cc1 [compound 6, N ^1,N ^4-di(pyridin-2-yl)terephthalimidamide hydrochloride] | essentially do not bind to DNA |  |  |  |
| CC(C)Oc1cc(NC(=N)c2ccccn2)ccc1-c1ccc(NC(=N)c2ccccn2)cc1OC(C)C.Cl.Cl [compound 13, N,N'-(2,2'-di-isopropoxy-[1,1'-biphenyl]-4,4'-diyl)dipicolinimidamide hydrochloride] | essentially does not bind to DNA | quite toxic to mice | severe tremors |  |
